Results as given in ChEMBL document CHEMBL1201862, “PubChem BioAssay data set” (2004).
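Protocol summary: plate cells (96-well), add compound at 5 concentrations, incubate 48 h, interpolate endpoints linearly. Abbreviation: GI50, concentration required for 50% inhibition of growth.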 The source made the active and inactive calls. Cut-off read from the data, not from the text of the source: active = GI50 up to about 1.1 µM and inactive = higher.

Experiments:
Assay in all cases: NCI tumour cell line growth inhibition, 48 h
HOP-62 = test system: HOP-62
SK-MEL-5 = test system: SK-MEL-5
HOP-92 = test system: HOP-92
SR = test system: SR
HL-60 = test system: HL-60
UO-31 = test system: UO-31
OVCAR-4 = test system: OVCAR-4
NCI-H23 = test system: NCI-H23
ACHN = test system: ACHN
NCI-H460 = test system: NCI-H460
SF-539 = test system: SF-539
SK-MEL-28 = test system: SK-MEL-28
U-251 = test system: U-251
UACC-62 = test system: UACC-62
IGROV-1 = test system: IGROV-1
K562 = test system: K562
NCI/ADR-RES = test system: NCI/ADR-RES

Compound | GI50 (HOP-62) | GI50 (SK-MEL-5) | GI50 (HOP-92) | GI50 (SR) | GI50 (HL-60) | GI50 (UO-31) | GI50 (OVCAR-4) | GI50 (NCI-H23) | GI50 (ACHN) | GI50 (NCI-H460) | GI50 (SF-539) | GI50 (SK-MEL-28) | GI50 (U-251) | GI50 (UACC-62) | GI50 (IGROV-1) | GI50 (K562) | GI50 (NCI/ADR-RES)
CC(=O)OCCOCNC(=S)N/N=C/c1ccc([N+](=O)[O-])s1 | > 100 µM (inactive) | 25.7 µM (inactive) | > 100 µM (inactive) | 9.68 µM (inactive) | 3.81 µM (inactive) | > 100 µM (inactive) | 64.1 µM (inactive) | 19 µM (inactive) | 46.5 µM (inactive) | 42.4 µM (inactive) | 34 µM (inactive) | > 100 µM (inactive) | 32.1 µM (inactive) | 24.3 µM (inactive) | 34 µM (inactive) | 21.7 µM (inactive) | 
COc1ccccc1NC(=O)C1=C(C)NC(C)=C(C(=O)Nc2ccccc2OC)C1c1ccccc1Cl | > 100 µM (inactive) | 47.8 µM (inactive) | > 100 µM (inactive) | 36.6 µM (inactive) | 53.6 µM (inactive) | 28.5 µM (inactive) | > 100 µM (inactive) | > 100 µM (inactive) | 55.7 µM (inactive) | 59.3 µM (inactive) | 26.1 µM (inactive) | > 100 µM (inactive) | 78.3 µM (inactive) | > 100 µM (inactive) | > 100 µM (inactive) | 32.7 µM (inactive) | 
CCCCCCCCCCCCCCCC(=O)N[C@H]1CCc2cc(OC)c(OC)c(OC)c2-c2ccc(SC)c(=O)cc21 | 7.73 µM (inactive) | 0.5 µM (active) | 0.891 µM (active) | 0.258 µM (active) | 0.279 µM (active) | 3.52 µM (inactive) | 3.24 µM (inactive) | 0.29 µM (active) | 2.2 µM (inactive) | 0.376 µM (active) | 0.294 µM (active) | 0.782 µM (active) | 0.294 µM (active) | 0.601 µM (active) | 2.58 µM (inactive) | 0.325 µM (active) | 
COc1cccc2c1C(=O)c1c(O)c3c(c(O)c1C2=O)C[C@@](O)(C(=O)CN1CCOCC1)C[C@@H]3OC1CC(N)C(O)C(C)O1 (stereo not given in full) | 2.48 µM (inactive) | 3.11 µM (inactive) |  |  | 0.895 µM (active) | 19 µM (inactive) | 9.53 µM (inactive) | 5.3 µM (inactive) |  | 0.446 µM (active) | 4.09 µM (inactive) | 12.2 µM (inactive) | 2.12 µM (inactive) | 3.58 µM (inactive) | 5.7 µM (inactive) | 2.9 µM (inactive) | 5.52 µM (inactive)
Cc1cccc(C)c1N1C(=O)C(=O)C(c2nc3ccccc3s2)/C(=N/NC(=O)c2ccccc2O)C1=O (stereo not given) | 9.18 µM (inactive) | 16.2 µM (inactive) | 15.7 µM (inactive) | 8.45 µM (inactive) | 12.5 µM (inactive) | 4.78 µM (inactive) | 16.8 µM (inactive) | 7.38 µM (inactive) | 6.65 µM (inactive) | 17.7 µM (inactive) | 6.87 µM (inactive) | 28 µM (inactive) | 20.6 µM (inactive) | 2.08 µM (inactive) | 3.26 µM (inactive) | 3.8 µM (inactive) | 
O=C1C[S+]([O-])c2ccccc2N1 (stereo not given) | > 100 µM (inactive) | > 100 µM (inactive) | > 100 µM (inactive) | 45.5 µM (inactive) | > 100 µM (inactive) | > 100 µM (inactive) | > 100 µM (inactive) | > 100 µM (inactive) | > 100 µM (inactive) | 66.1 µM (inactive) | > 100 µM (inactive) | 55.1 µM (inactive) | > 100 µM (inactive) | > 100 µM (inactive) | > 100 µM (inactive) | > 100 µM (inactive) | 
Cc1c(C)c2ccc(OC(C)C(=O)O)cc2oc1=O (stereo not given) | > 100 µM (inactive) | > 100 µM (inactive) | > 100 µM (inactive) | > 100 µM (inactive) | > 100 µM (inactive) | > 100 µM (inactive) | > 100 µM (inactive) | > 100 µM (inactive) | > 100 µM (inactive) | > 100 µM (inactive) | > 100 µM (inactive) | > 100 µM (inactive) | > 100 µM (inactive) | > 100 µM (inactive) | > 100 µM (inactive) | > 100 µM (inactive) | 
